Source: patent US20250073184A1, “CANNABIGEROQUINONE COMPOUNDS, COMPOSITIONS INCLUDING SUCH COMPOUNDS, AND USES OF SUCH COMPOUNDS AND COMPOSITIONS” (Juva Life, Inc., priority 2021, published 2025)
pEC50: −log10 of the molar value. Where two headings read alike, the source gives them in different places.

What was measured:
IFNgamma = IFNgamma secretion assay in human PBMCs (PHA-M, ELISA); assay type: cell-based; conditions: for pEC50: read-out: Inhibitory Activity EC50, IFNγ
Method: Fetal bovine serum (FBS) was obtained from ThermoFisher (Cat #16000044). • Other reagents: 96 well TC plates were obtained from ThermoFisher (Cat #07-2000-90).
IFN-gamma was assessed using a standard ELISA protocol. Cryopreserved PBMCs were thawed in a water bath and transferred to 50 mL polypropylene tubes. The cells were washed two times with 25 mL of RPMI medium supplemented with 5% of regular FBS and re-suspended at a density of 1.5^^6 cells/mL. The cells were plated into 96 well TC late (100 uL/well). Serially diluted compound was added to the cells in duplicate wells for each concentration. Control wells received DMSO only (0.3% final). The cells were pre-incubated with compound for 2 hr. After pre-incubation, the cells were stimulated by PHA-M (10 ug/mL) for 40 hr. Control samples with and without PHA-M in the absence of compound were assembled in each test plate. IFNg was detected in media supernatants by using a sandwich anti-IFNg ELISA kit (BD Biosciences) according to protocol provided by the manufacturer. ELISA readout (optical density at 450 nm) is commensurable with the amount of IFNg produced by the cells. Assay window was determined in each experiment by comparing average OD450 values in stimulated and un-stimulated samples in the absence of compound. ELISA calibration was performed in each detection plate using serially diluted recombinant human IFN gamma, to ensure that OD450 values for all test samples were within linear range of detection. %-Inhibition by compound was calculated using following equation:
where OD450100% is optical density in control samples stimulated with PHA-M without compound, OD4500% is optical density in unstimulated control samples, and OD450compound is optical density in a sample stimulated with PHA-M in the presence of compound.
(§1) The calculated %-Inh values were plotted against compound concentration. To determine IC50 values, dose-response curves were fitted by a 4-parameter sigmoid inhibition model using XLFit® software (IDBS).

TNFa = TNFa secretion assay in human PBMCs (LPS, ELISA); assay type: cell-based; conditions: read-out: Inhibitory Activity EC50, TNF
Method: Fetal bovine serum (FBS) was obtained from ThermoFisher (Cat #16000044). • Other reagents: 96 well TC plates were obtained from ThermoFisher (Cat #07-2000-90). LPS was obtained from Sigma (Cat #L3024).
TNF-alpha was assessed using a standard ELISA protocol. Cryopreserved PBMCs were thawed in a water bath and transferred to 50 mL polypropylene tubes. The cells were washed two times with 25 mL of RPMI medium supplemented with 5% of heat-inactivated FBS and re-suspended at a density of 4.5^^6 cells/mL. The cells were plated into 96 well TC late (100 uL/well). Serially diluted compound was added to the cells in duplicate wells for each concentration. Control wells received DMSO only (0.3% final). The cells were pre-incubated with compound for 1 hr. After pre-incubation, the cells were stimulated by LPS (100 ng/mL) for 6 hr. Control samples with and without LPS in the absence of compound were assembled in each test plate. TNFa was detected in media supernatants by using a sandwich anti-TNFa ELISA kit (BD Biosciences) according to protocol provided by the manufacturer. ELISA readout (optical density at 450 nm) is commensurable with the amount of TNFa produced by the cells. Assay window was determined in each experiment by comparing average OD450 values in stimulated and un-stimulated samples in the absence of compound. ELISA calibration was performed in each detection plate using serially diluted recombinant human TNFa, to ensure that OD450 values for all test samples were within linear range of detection.%-Inhibition by compound was calculated using following equation:
where OD450100% is optical density in control samples stimulated with LPS without compound, OD4500% is optical density in unstimulated control samples, and OD450compound is optical density in a sample stimulated with LPS in the presence of compound.
as §1

recombinant human LOX-5 = target: T1, recombinant human LOX-5 (Homo sapiens, UniProt P09917); assay: Biochemical LOX-5 assay
T1 construct: expressed in insect cells (Amino Acids 1-674) was obtained from Cayman; purchased Cayman 60402; host or cells: insect cells
T1 sequence (P09917 1-674): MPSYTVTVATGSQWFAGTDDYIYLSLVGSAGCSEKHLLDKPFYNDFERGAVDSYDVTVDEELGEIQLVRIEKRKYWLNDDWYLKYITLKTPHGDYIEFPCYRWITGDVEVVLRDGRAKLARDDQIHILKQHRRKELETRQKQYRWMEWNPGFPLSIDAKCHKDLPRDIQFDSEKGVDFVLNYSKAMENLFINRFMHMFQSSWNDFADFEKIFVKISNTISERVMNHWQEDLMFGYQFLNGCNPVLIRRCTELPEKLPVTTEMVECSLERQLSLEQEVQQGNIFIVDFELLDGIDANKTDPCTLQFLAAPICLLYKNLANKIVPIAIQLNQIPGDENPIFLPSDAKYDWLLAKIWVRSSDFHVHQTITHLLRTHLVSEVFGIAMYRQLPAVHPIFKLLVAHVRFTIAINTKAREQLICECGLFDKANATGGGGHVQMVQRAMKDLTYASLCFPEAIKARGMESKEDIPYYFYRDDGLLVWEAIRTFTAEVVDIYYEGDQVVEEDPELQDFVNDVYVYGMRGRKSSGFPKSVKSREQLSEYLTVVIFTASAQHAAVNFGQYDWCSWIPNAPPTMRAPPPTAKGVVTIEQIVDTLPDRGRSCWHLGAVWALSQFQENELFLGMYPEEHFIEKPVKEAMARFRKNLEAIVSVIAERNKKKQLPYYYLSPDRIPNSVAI
Method: The LOX-5 assay was performed in assay buffer comprising: 50 mM Tris (pH 7.5), 2 mM EDTA, 2 mM CaCl2), 3 uM AA, 10 uM ATP, 10 uM H2DCFDA, and recombinant enzyme (50 mU per 20 ul reaction, as defined by manufacturer). Serially diluted compounds were prepared in DMSO in Echo qualified 384 well plates. An assay buffer was then prepared without AA and ATP supplemented with 20 uM H2DCFDA. 10 uL of the supplemented buffer was dispensed into control (no enzyme) wells in the black 384 well assay plate. Next, a 2× enzyme solution was prepared, comprising 100 mU LOX-5 enzyme in the supplemented assay buffer. 10 uL of the 2× enzyme solution was then dispensed into test wells in the black 384 well assay plate. Serially diluted compounds were added to the assay plate by acoustic dispensing (Labcyte 550). Control wells received DMSO only.
Next, the 2× substrate was prepared to comprise 6 uM arachidonic acid and 20 uM ATP in the assay buffer. 10 uL of the 2× substrate was then added to all wells in the assay plate. The plate was incubated for 20 min.
[formula] • where RFU100% is fluorescence in control samples without compound, RFU0% is fluorescence in control samples without LOX-5, and RFUcompound fluorescence in a sample with compound.
The calculated %-Inh values were plotted against compound concentration. To determine EC50 values, dose-response curves were fitted by a 4-parameter sigmoid inhibition model using XLFit® software (IDBS).

[1] = recombinant enzyme, read-out: Inhibitory Activity EC50, 5-Lox
[2] = PBMC, human PBMCs, PHA-M 10 ug/mL 40 hr
[3] = PBMC, human PBMCs, LPS 100 ng/mL 6 hr

Compound	pEC50 (recombinant human LOX-5; [1])	pEC50 (IFNgamma; [2])	pEC50 (TNFa; [3])	pEC50 (recombinant human LOX-5)	further results
CCCCCc1cc(O)c(C/C=C(\C)CCC=C(C)C)c(O)c1O [Formula XXXIX]	6.70	–	–	–	pEC50 (IFNgamma; Homo sapiens, PBMC, 40 h): 5.73; pEC50 (TNFa; Homo sapiens, PBMC, 6 h): 5.21
CCCCCc1cc(OC)c(C/C=C(\C)CCC=C(C)C)c(O)c1OC [Formula XLII]	–	5.39	< 5.00	6.68	–
CCCCCc1cc(OC(C)=O)c(C/C=C(\C)CCC=C(C)C)c(O)c1OC(C)=O [Formula XLIII]	–	5.95	5.06	6.47	–
CCCCCC1=C(NC)C(=O)C(C/C=C(\C)CCC=C(C)C)=C(O)C1=O [Formula XLI]	–	5.60	< 5.00	6.32	–
Cannabigerol Quinone [Formula VI]	6.57	–	–	–	stronger inhibition of IFNγ compared to Cox-2 (IFNgamma): over 60 fold; pEC50 (IFNgamma; human PBMCs, PHA-M 10 ug/mL 40 hr): 6.04; pEC50 (TNFa; human PBMCs, LPS 100 ng/mL 6 hr): 4.73; stronger inhibition for 5-Lox compared to Cox-2 (recombinant human LOX-5): over 200 fold
